Data as given in patent US20260240852A1, “Use of Oral JAK Kinase Inhibitors to Treat Lichen Planus” (Mayo Foundation for Medical Education and Research, priority 2023, published 2026).
Values joined by “and” are separate entries in the source; they are usually repeats but may differ in a detail not shown here. Equal values may be shown once.

How the values were obtained:
Format in all cases: in vivo, human
[1] = test system: patients with biopsy-proven cutaneous LP; assay: Open-label, single-arm phase 2 trial of oral baricitinib in cutaneous lichen planus: clinical efficacy
Protocol: A clinical study was conducted in which 12 patients with biopsy-proven LP were trialed on oral baricitinib at a daily dose of 2 mg for 16 weeks. Other inclusionary criteria included having at least 4 lesions of LP at baseline. The mean age of participants was 63.6 years. The vast majority were female and identified as Caucasian. A quarter were under-represented minorities. The mean duration of disease for all patients was 2.2 years. Five of the 12 participants had hypertrophic LP, and 11 were refractory to prior therapy. All but one patient had previously trialed topical steroids. Almost half (41.7%) had failed oral or IM steroids.
The primary outcome of this study was PGA at week 16, with treatment response defined as greater than 50% improvement with a PGA grade of 0 to 3. Non-responsive was defined as PGA 4 and 5. Secondary endpoints included changes from baseline to week 16 in mCAILS, pruritus scores, Skindex-16, BSA, and total lesion count.
Trial Design. A single-arm, open-label, phase 2, […] trial was conducted at Mayo Clinic, Arizona (ClinicalTrials.gov identifier NCT05188521). The Mayo Clinic Institutional Review Board approved the study (IRB 21-003075), and all patients provided written informed consent. Twelve patients with biopsy-proven cutaneous LP were administered oral baricitinib 2 mg once daily for 16-weeks. The primary endpoint was an overall response by Physician Global Assessment (PGA) of skin at week 16, with treatment response defined as PGA 0 to 3 (with ≥50% score reduction). Secondary outcomes were changes in mCAILS, total body lesion count, affected BSA, pruritus numeric rating scale (NRS), pruritus verbal rating scale (VRS), pruritus visual analog scale (VAS), pain NRS, and Skindex-16. Patients were evaluated at baseline (week 0) and weeks 2, 4, 8, 12, and 16. […] Complete responders at week 16 were reassessed at week 20 and partial responders at week 16 were reassessed at week 32, after an off-therapy period of 4 weeks, respectively.
(§1) Assessments of treatment efficacy, adverse events (AEs), and QoL were completed at each study visit. All lesions were annotated, photographed, and scored using the mCAILS criteria. 16 All clinical assessments were performed by the principal investigator and co-investigators (ARM, MRP, SZ) with questionable lesions scored by 2 investigators. The revised National Cancer Institute Common Terminology Criteria for Adverse Events version 5.0 was used for AE reporting. Due to travel issues, one patient withdrew from the study after week 8. An intention-to-treat (ITT) analysis was used with the patient's last observation to impute week 16 data.
Eligibility Criteria. Patients aged ≥18 years with biopsy-proven cutaneous LP were eligible for the trial. Both treatment-naïve and treatment-refractory disease were included. Key exclusion criteria included predominantly non-cutaneous variants of LP, active infections, and other active inflammatory cutaneous conditions.
Statistical Analysis. Patient demographics, clinical characteristics, and outcomes were summarized as mean, standard deviation, median, interquartile range for continuous variables, and frequency and percentages for categorical variables. Primary and secondary outcome differences between baseline and week 16 were compared using Wilcoxon signed rank test for continuous variables and McNemar's test for binary variables. One patient withdrew from the study after week 8, and this patient's last observation (week 8) was used to impute week 16 data in the ITT analysis.
Exact binomial method was used to calculate the treatment response rate at week 16 and its corresponding 95% confidence interval. All analyses were conducted with R version 4.1.2 (R Foundation for Statistical Computing, Vienna, Austria). The cut-off for statistical significance was set as 0.05.

[2] = Adverse event assessment in the baricitinib LP trial (CTCAE version 5.0)
Protocol: as §1

[3] = test system: patients with biopsy-proven cutaneous LP; assay: Open-label, single-arm phase 2 trial of oral baricitinib in cutaneous lichen planus: clinical efficacy; details: dose escalation, after 12 weeks of 4 mg daily, five patients
[4] = five dose-escalation patients at week 16 (after 2 mg daily), start of dose escalation
[5] = oral 2 mg once daily, baseline to week 16, ITT
[6] = oral 2 mg once daily, baseline to week 16, ITT, P 0.002
[7] = oral 2 mg once daily, baseline to week 16, ITT, P 0.003

In the case of CCS(=O)(=O)N1CC(CC#N)(n2cc(-c3ncnc4[nH]ccc34)cn2)C1 [baricitinib], the “Patients with PGA grade 1” value [1, 4] is reported as 80.0%, the “Patients with PGA grade 4” value [1, 4] is reported as 20% and the “Mean total body lesion count” value ([1]; oral 2 mg daily, by week 16, 146 at baseline (first report)) is reported as 8. For the same compound, the “Treatment response (PGA), patients” value ([1]; oral 2 mg daily, week 1) was 37.5%, the “Treatment response (PGA), patients” value ([1]; oral 2 mg daily, week 12) was 100% and the “Patients with a PGA grade of 0 or 1 (completely clear and almost clear)” value ([1]; oral 2 mg daily, week 16 (primary endpoint), all but one patient) was 90.9%. For the same compound, the “BSA affected (%), Range, Difference” value [1, 5] was −9.8 to −0.1%, the “Pain NRS, Range, Difference” value [1, 5] was −8.0 to 0.0 and the “Pruritus NRS, Range, Difference” value [1, 5] was −8.0 to −0.0. The “Pruritus VAS, Range, Difference” value [1, 5] was −7.7 to 1.5, the “Skindex-16 emotional, Range, Difference” value [1, 5] was −34.0 to 0.0 and the “Skindex-16 functional, Range, Difference” value [1, 5] was −15.0 to 0.0. The “Skindex-16 overall, Range, Difference” value [1, 5] was −58.0 to 0.0, the “Skindex-16 symptom, Range, Difference” value [1, 5] was −19.0 to 0.0 and the “Total Body Lesion Count, Range, Difference” value [1, 5] was −570.0 to −4.0. The “mCAILS, Range, Difference” value [1, 5] was −14.6 to −5.0, the “BSA affected (%), Mean (SD), Difference” value [1, 6] was −3.9 (2.9) % and the “Total Body Lesion Count, Mean (SD), Difference” value [1, 6] was −134.8 (157.0). For the same compound, the “mCAILS, Mean (SD), Difference” value [1, 6] was −10.6 (2.9), the “Pruritus NRS, Mean (SD), Difference” value [1, 7] was −5.3 (2.6) and the “Pruritus VAS, Mean (SD), Difference” value [1, 7] was −5.0 (2.6). For the same compound, the “Pain NRS, Mean (SD), Difference” value ([1]; oral 2 mg once daily, baseline to week 16, ITT, P 0.005) was −5.6 (2.7), the “Skindex-16 overall, Mean (SD), Difference” value ([1]; oral 2 mg once daily, baseline to week 16, ITT, P 0.008) was −37.3(18.3) and the “Pain NRS4, patients achieving” value ([1]; oral 2 mg once daily, week 16) was 66.7%. The “Pruritus NRS improvement >4 from baseline (NRS4), patients achieving” value ([1]; oral 2 mg once daily, week 16) was 75.0%, the “PGA Non-responsive (n, %)” value ([1]; oral 2 mg once daily, week 16, ITT, 12 patients) was 16.7% and the “PGA Responsive (n, %)” value ([1]; oral 2 mg once daily, week 16, ITT, 12 patients, response = PGA 0 to 3 with ≥50% score reduction) was 83.3%. For the same compound, the “BSA affected (%), Mean (SD), Week 16” value ([1]; oral 2 mg once daily, week 16, ITT, baseline 4.9 (3.7), P 0.002) was 1.0% and 1.0 (2.5) %, the “Skindex-16 functional, Mean (SD), Week 16” value ([1]; oral 2 mg once daily, week 16, ITT, baseline 11.6 (10.2), P 0.012) was 4.5 (9.0) and the “mCAILS, Mean (SD), Week 16” value ([1]; oral 2 mg once daily, week 16, ITT, baseline 12.3 (3.2), P 0.002) was 1.7 (3.3). For the same compound, the “Skindex-16 symptom, Mean (SD), Week 16” value ([1]; oral 2 mg once daily, week 16, ITT, baseline 16.4 (6.0), P 0.005) was 3.7 (7.0), the “Skindex-16 emotional, Mean (SD), Week 16” value ([1]; oral 2 mg once daily, week 16, ITT, baseline 29.9 (9.0), P 0.003) was 9.0 (12.4) and the “Skindex-16 overall, Mean (SD), Week 16” value ([1]; oral 2 mg once daily, week 16, ITT, baseline 59.0 (22.1), P 0.008) was 16.9 (28.7). The “Skindex-16 functional, Range, Week 16” value ([1]; oral 2 mg once daily, week 16, ITT, baseline range 0.0-30.0) was 0.0-30.0, the “BSA affected (%), Range, Week 16” value ([1]; oral 2 mg once daily, week 16, ITT, baseline range 0.1-12.0) was 0.0-8.5% and the “Pruritus NRS, Range, Week 16” value ([1]; oral 2 mg once daily, week 16, ITT, baseline range 1.0-10.0) was 0.0-10.0. The “Pruritus VAS, Range, Week 16” value ([1]; oral 2 mg once daily, week 16, ITT, baseline range 2.7-8.8) was 0.0-9.0, the “Pain NRS, Range, Week 16” value ([1]; oral 2 mg once daily, week 16, ITT, baseline range 4.0-10.0) was 0.0-10.0 and the “Skindex-16 symptom, Range, Week 16” value ([1]; oral 2 mg once daily, week 16, ITT, baseline range 4.0-24.0) was 0.0-24.0. For the same compound, the “Total Body Lesion Count, Range, Week 16” value ([1]; oral 2 mg once daily, week 16, ITT, baseline range 4.0-600.0) was 0.0-117.0, the “mCAILS, Range, Week 16” value ([1]; oral 2 mg once daily, week 16, ITT, baseline range 7.0-18.6) was 0.0-8.9 and the “Skindex-16 emotional, Range, Week 16” value ([1]; oral 2 mg once daily, week 16, ITT, baseline range 17.0-42.0) was 0.0-42.0. The “Skindex-16 overall, Range, Week 16” value ([1]; oral 2 mg once daily, week 16, ITT, baseline range 35.0-96.0) was 0.0-96.0, the “Overall Skindex-16 score, mean decrease from baseline to week 16” value ([1]; oral 2 mg once daily, SD 18.3, p=0.008) was 37.3 and the “Treatment response (PGA), patients” value ([1]; week 20, after 4 weeks of being off-therapy) was 100%. For the same compound, the Total adverse events ([2]; 12 patients, oral baricitinib) was 12, the “AEs leading to discontinuation” value ([2]; in vivo) was “No AEs led to the discontinuation” and the Serious adverse events ([2]; in vivo) was “Serious adverse events did not occur”. For the same compound, the “Adverse events related / probably related to the study drug” value ([2]; low neutrophil count (neutropenia), mild, not deemed serious) was “one and A single AE of neutropenia”, the “AEs that were mild” value ([2]; of 12 AEs) was 58.3% and the “AEs that were moderate” value ([2]; of 12 AEs) was 25.0%. The “Adverse events unrelated or unlikely to be related to baricitinib” value ([2]; of 12 AEs) was 11, the “Absolute neutrophil count of the drug-related AE” value ([2]; the one mild AE deemed probably related to the study drug) was 7.8e+08 L⁻¹ and the “Patients almost clear (PGA grade 1)” value [3] was 20.0%. For the same compound, the “Patients completely clear of disease (PGA grade 0)” value [3] was 60.0% and the “Patients with slight improvement (PGA grade 4)” value [3] was 20.0%.
